Data on 15 compounds can be found in patent US10226453B2, “3-(1H-indol-2-yl)-1H-pyrazolo[4,3-B]pyridines and therapeutic uses thereof” (Samumed, LLC, priority 2015, dated 2019).

In assay [1] the test system is SW480 colon cancer cells. As to the kind of experiment: Cell viability assay (CellTiter-Blue), SW480 colon cancer cells. Type of assay: cell-based. The following applies: Homo sapiens, 96 h, four days; for pEC50: CellTiter-Blue; for inhibition at 10 µM: given where EC50 >10 μM, read-out: percent inhibition at 10 μM. In short, it runs like this:
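SW480 cells (~2×10^3/well) exposed four days at 37 °C to 8-point 1:3 dilutions, 10 μM down to 0.0045 μM. Viability from resazurin reduction (CellTiter-Blue, ~3 h, Ex 560/Em 590); EC50 by non-linear regression, or percent inhibition at 10 μM where EC50 exceeds 10 μM.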
In general terms: Alamar Blue is a resazurin reagent that responds to reducing activity.

In assay [2] the test system is primary human fibroblasts derived from IPF patients (LL29 cells) treated with TGF-β1. As to the kind of experiment: Inhibition of the fibrotic process: αSMA staining in TGF-β1 treated primary human fibroblasts from IPF patients (LL29 cells). The following applies: Fibroblast, 96 h, TGF-β1 20 ng/mL, 4 days; for pEC50: % αSMA positive cells; for inhibition at 10 µM: given where EC50 >10 μM, read-out: percent inhibition at 10 μM. Type of assay: cell-based. In short, it runs like this: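 Read-out: fraction of αSMA-positive cells by high-content imaging, SYTOX-stained dead cells excluded, normalized to TGF-β1/DMSO wells. Cells got compound (10 μM–[…], 11 points) plus TGF-β1 20 ng/mL for 4 days. EC50 from triplicate curves; above 10 μM, % inhibition at 10 μM given.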

pEC50: −log10 of the molar value.

By pEC50 is commonly meant the negative decadic logarithm of the EC50, by convention in mol/L. Low readings indicate a large EC50, high ones a small EC50. In general, inhibition refers to the change of the read-out against control, counted positive when it falls. Consider `c1ccc(-c2ccc3[nH]nc(-c4cc5c(-c6ccncc6)cccc5[nH]4)c3n2)nc1` [Compound 140, 5-(Pyridin-2-yl)-3-(4-(pyridin-4-yl)-1H-indol-2-yl)-1H-pyrazolo[4,3-b] pyridine], for which the pEC50 in assay [1] was < 5.00; in assay [2], 6.28. Besides, the inhibition at 10 µM in assay [1] worked out at 33.4%.

In the case of `c1cncc(-c2ccc3[nH]nc(-c4cc5c(-c6cccnc6)cccc5[nH]4)c3n2)c1` [Compound 88, 5-(Pyridin-3-yl)-3-(4-(pyridin-3-yl)-1H-indol-2-yl)-1H-pyrazolo[4,3-b] pyridine], the pEC50 in assay [1] was 6.11; in assay [2], 7.06.

On to `CN(C)CCNc1cc(F)cc(-c2cccc3[nH]c(-c4n[nH]c5ccc(-c6cncnc6)nc45)cc23)c1` [Compound 475, N^1-(3-Fluoro-5-(2-(5-(pyrimidin-5-yl)-1H-pyrazolo[4,3-b]pyridin-3-yl)-1H-indol-4-yl)phenyl)-N^2,N^2-dimethylylethane-1,2-diamine], for which the pEC50 in assay [1] is 5.89; in assay [2], 6.51.

As to `c1cc(N2CCCCC2)c2cc(-c3n[nH]c4ccc(-c5cncc(OC6CCNCC6)c5)nc34)[nH]c2c1` [Compound 636, 3-(4-(Piperidin-1-yl)-1H-indol-2-yl)-5-(5-(piperidin-4-yloxy)pyridin-3-yl)-1H-pyrazolo[4,3-b]pyridine], the values for the pEC50 in assay [1] and in assay [2] were 5.40 and 5.41, respectively.

As for `CN(C)c1cncc(-c2ccc3[nH]nc(-c4cc5c(-c6ccoc6)cccc5[nH]4)c3n2)c1` [Compound 315, 5-(3-(4-(Furan-3-yl)-1H-indol-2-yl)-1H-pyrazolo[4,3-b]pyridin-5-yl)-N,N-dimethylpyridin-3-amine], the pEC50 is 5.72 in assay [1] and 6.20 in assay [2].

Regarding `Cc1ccncc1-c1ccc2[nH]nc(-c3cc4c(-c5ccncc5)cccc4[nH]3)c2n1` [Compound 117, 5-(4-Methylpyridin-3-yl)-3-(4-(pyridin-4-yl)-1H-indol-2-yl)-1H-pyrazolo [4,3-b]pyridine], the pEC50 in assay [1] is 6.16; in assay [2] it was 6.71.

Compound `Oc1cncc(-c2ccc3[nH]nc(-c4cc5ncccc5[nH]4)c3n2)c1` [Compound 1031, 5-(3-(1H-Pyrrolo[3,2-b]pyridin-2-yl)-1H-pyrazolo[4,3-b]pyridin-5-yl) pyridin-3-ol] showed a pEC50 in assay [1] of 5.36. Moreover, in assay [2], the pEC50 is < 5.00 and the inhibition at 10 µM amounted to 18.4%.

As for `c1cc(-c2ccncc2)c2cc(-c3n[nH]c4ccc(-c5cncc(CN6CCCCC6)c5)nc34)[nH]c2c1` [Compound 127, 5-(5-(Piperidin-1-ylmethyl)pyridin-3-yl)-3-(4-(pyridin-4-yl)-1H-indol-2-yl)-1H-pyrazolo[4,3-b]pyridine], the negative-log EC50 (pEC50) in assay [1] was 5.72; in assay [2], 5.05.

Consider `O=C(CC1CCNCC1)Nc1cncc(-c2ccc3[nH]nc(-c4cc5c(-c6ccccn6)cccc5[nH]4)c3n2)c1` [Compound 621, 2-(Piperidin-4-yl)-N-(5-(3-(4-(pyridin-2-yl)-1H-indol-2-yl)-1H-pyrazolo[4,3-b]pyridin-5-yl)pyridin-3-yl)acetamide], for which, in assay [1], the pEC50 is < 5.00 and the inhibition at 10 µM worked out at 51%. Also, the pEC50 in assay [2] was 5.67.

As to `c1ccc(-c2cccc3[nH]c(-c4n[nH]c5ccc(-c6cncnc6)nc45)cc23)nc1` [Compound 167, 3-(4-(Pyridin-2-yl)-1H-indol-2-yl)-5-(pyrimidin-5-yl)-1H-pyrazolo[4,3-b] pyridine], the negative-log EC50 (pEC50) in assay [1] is < 5.00; in assay [2] it was 6.70. The inhibition at 10 µM in assay [1] is 13.8%.

With `Nc1cncc(-c2ccc3[nH]nc(-c4cc5c(-c6ccncc6)cccc5[nH]4)c3n2)c1` [Compound 115, 5-(3-(4-(Pyridin-4-yl)-1H-indol-2-yl)-1H-pyrazolo[4,3-b]pyridin-5-yl) pyridin-3-amine], the pEC50 was 6.66 in assay [1] and 7.39 in assay [2].

On to `c1cncc(-c2ccc3[nH]nc(-c4cc5ccccc5[nH]4)c3n2)c1` [Compound 256, 3-(1H-Indol-2-yl)-5-(pyridin-3-yl)-1H-pyrazolo[4,3-b]pyridine], for which, in assay [1], the pEC50 is < 5.00 and the inhibition at 10 µM was determined as 37.6%. The pEC50 in assay [2] is 5.94.

Regarding `CC(C)(C)C(=O)Nc1cncc(-c2ccc3[nH]nc(-c4cc5c(-c6cccc(F)c6)cccc5[nH]4)c3n2)c1` [Compound 8, N-(5-(3-(4-(3-Fluorophenyl)-1H-indol-2-yl)-1H-pyrazolo[4,3-b]pyridin-5-yl)pyridin-3-yl)pivalamide], the results for the pEC50 in assay [1] and in assay [2] were < 5.00 and 5.44, respectively. Besides, the inhibition at 10 µM in assay [1] came out at 20.9%.

Turning to `Cc1ccncc1-c1ccc2[nH]nc(-c3cc4c(-c5cc(F)cc(CNS(C)(=O)=O)c5)cccc4[nH]3)c2n1` [Compound 481, N-(3-Fluoro-5-(2-(5-(4-methylpyridin-3-yl)-1H-pyrazolo[4,3-b]pyridin-3-yl)-1H-indol-4-yl)benzyl)methanesulfonamide], the pEC50 was 6.23 in assay [1] and 7.11 in assay [2].

With `c1ccc(-c2ccc3[nH]nc(-c4cc5c(N6CCCCC6)cccc5[nH]4)c3n2)nc1` [Compound 196, 3-(4-(Piperidin-1-yl)-1H-indol-2-yl)-5-(pyridin-2-yl)-1H-pyrazolo[4,3-b] pyridine], in assay [1], the pEC50 is < 5.00 and the inhibition at 10 µM turned out to be 10.4%. For the same compound, in assay [2], the negative logarithm of the EC50 (pEC50) is < 5.00 and the inhibition at 10 µM came to 5.2%.
